# Data taken from patent publication US5861424A, “Composition and method for treating cancer” (priority 1995, dated 1999).
# Read-outs that look alike come from different tables or passages of the source.
# How the values were obtained:
# [1] = system: normal monkey kidney epithelial cell line CV-1; test: Colony formation assay, normal monkey kidney epithelial cells CV-1; settings: for IC50: Primates, Epithelial cell; for CV-1 (IC50): Table III;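 for all read-outs here: colonies visualized by crystal violet staining, incubation at 37 °C, IC50 relative to untreated wells given culture medium alone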
# Experimental: Human colon carcinoma cell line CX-1 or normal monkey kidney epithelial cell line CV-1 was chosen as representatives of cancer cells and normal cells, respectively. […] CX-1 cells (2,000 cells/well) and CV-1 cells (1,000 cells/well) were plated in 24-well plastic culture plates. […] The control received culture media only. Cells were treated with compounds of General Formulas (1) to (6) at 37° C. for 24 hours. After rinsing with fresh culture medium three times, the cells were further incubated at 37° C. for 7 to 10 days. Cell colonies were fixed and stained with 2% crystal violet in 70% ethanol for 10 minutes and rinsed in water. […] The selectivity is defined as the ratio of IC50 for CV-1 and IC50 for CX-1.
# [2] = system: human colon carcinoma cell line CX-1; test: Colony formation assay, human colon carcinoma CX-1; type: cell-based; settings: for IC50: Homo sapiens, Colon carcinoma cell; for IC50 / CX-1 (IC50): 24 h treatment, colony count after 7 to 10 days; for Selectivity (ratio of IC50 for CV-1 and IC50 for CX-1): CV-1/CX-1
# [3] = read-out: CV-1 (IC50), Table III, 24 h treatment, colony count after 7 to 10 days
# [4] = Table III, read-out: CX-1 (IC50)
# [5] = read-out: CX-1 (IC50), Table III
# [6] = 24 h treatment, colony count after 7 to 10 days
Structure (SMILES),"IC50 [1, 3]","IC50 [2, 4]",Selectivity (ratio of IC50 for CV-1 and IC50 for CX-1) ([2]; Table III),"IC50 [2, 5]",CX-1 (IC50) ([2]; Table III),IC50 ([1]; read-out: CV-1 (IC50)),"CV-1 (IC50) [1, 6]"
CCN1C(=CC=c2sc(=Cc3sc4ccc5ccccc5c4[n+]3CC)n(CC)c2=O)Sc2ccc3ccccc3c21 [Compound 30],5 µg/mL,0.025 µg/mL,,,,,
CCN1C(=CC=c2sc(=Cc3sc4c5ccccc5ccc4[n+]3CC)n(-c3ccccc3)c2=O)Sc2ccc3ccccc3c21 [Compound 68],5 µg/mL,,100,,,,
CCN1C(=CC=c2sc(=Cc3sc4c5ccccc5ccc4[n+]3CC)n(CC)c2=O)C=Cc2cc(Cl)ccc21 [Compound 253],> 20 µg/mL,0.04 µg/mL,> 500,,,,
CCN1C=CC(=CC=c2sc(=Cc3sc4ccccc4[n+]3CC)n(CC)c2=O)C=C1 [Compound 317],20 µg/mL,,100,0.2 µg/mL,,,
CCN1C(=CC=c2sc(=Cc3cc[n+](CC)c4ccccc34)n(CC)c2=O)C=Cc2cc(Cl)ccc21 [Compound 396],,,250,,0.08 µg/mL,,
CCN1C(C)=CSC1=CC=c1sc(=C2CCC[n+]3c2sc2ccccc23)n(CC)c1=O [Compound 386],,,100,0.1 µg/mL,,10 µg/mL,
CCN1CCSC1=CC=c1sc(=Cc2[se]c3ccccc3[n+]2CC)n(CC)c1=O [Compound 157],,,100,0.08 µg/mL,,8 µg/mL,
CCN1C(=CC=c2sc(=Cc3sc4c5ccccc5ccc4[n+]3CC)n(CCOC(C)=O)c2=O)Sc2ccc3ccccc3c21 [Compound 67],,0.05 µg/mL,200,,,10 µg/mL,
CCN1C(=CC=c2sc(=CC3=[N+](CC)CCS3)n(CC)c2=O)C=Cc2ccccc21 [Compound 394],,,125,0.08 µg/mL,,10 µg/mL,
CCN1C(=CC=c2sc(=Cc3cc[n+](CC)c4ccccc34)n(CC)c2=O)C=Cc2ccccc21 [Compound 393],,,400,,0.05 µg/mL,,20 µg/mL
CCN1CCSC1=CC=c1sc(=Cc2sc3ccccc3[n+]2CC)n(CC)c1=O [Compound 137],5 µg/mL,0.05 µg/mL,100,,,,
CCN1CCSC1=CC=c1sc(=Cc2oc3c4ccccc4ccc3[n+]2CC)n(CC)c1=O [Compound 390],20 µg/mL,,250,0.08 µg/mL,,,
CCN1C(=CC=c2sc(=Cc3cc[n+](CC)c4ccccc34)n(CC)c2=O)C=Cc2cc(Cl)ccc21 [Compound 395],20 µg/mL,,100,,0.2 µg/mL,,
CCN1CCSC1=CC=c1sc(=Cc2oc3cc(Cl)c(Cl)cc3[n+]2CC)n(CC)c1=O [Compound 391],,0.07 µg/mL,114,,,8 µg/mL,
CCN1CCSC1=CC=c1sc(=Cc2sc3c4ccccc4ccc3[n+]2CC)n(CC)c1=O [Compound 151],,,250,,0.08 µg/mL,,20 µg/mL
CCN1C(=CC=c2sc(=CC3=[N+](CC)CCS3)n(CC)c2=O)C=Cc2ccccc21 [Compound 400],> 20 µg/mL,,> 250,,,,
CCN1C(=CC=c2sc(=Cc3sc4c5ccccc5ccc4[n+]3CC)n(CC)c2=O)Sc2c1ccc1ccccc21 [Compound 7],4 µg/mL,0.04 µg/mL,100,,,,
CCN1C=CC=CC1=CC=c1sc(=Cc2sc3ccc4ccccc4c3[n+]2CC)n(CC)c1=O [Compound 398],16 µg/mL,0.04 µg/mL,400,,,,
CCN1C(=CC=c2sc(=Cc3sc4ccc5ccccc5c4[n+]3CC)n(CC)c2=O)Sc2c1ccc1ccccc21 [Compound 20],6 µg/mL,,200,0.03 µg/mL,,,
CCN1C(=CC=c2sc(=Cc3cc[n+](CC)c4ccccc34)n(CC)c2=O)C=Cc2ccccc21 [Compound 392],,,286,,0.01 µg/mL,,20 µg/mL

Structure (SMILES),"IC50 [1, 3]","IC50 [2, 4]",Selectivity (ratio of IC50 for CV-1 and IC50 for CX-1) ([2]; Table III),"IC50 [2, 5]",CX-1 (IC50) ([2]; Table III),IC50 ([1]; read-out: CV-1 (IC50)),"CV-1 (IC50) [1, 6]"
CCOc1ccc2c(c1)C=CC(=CC=c1sc(=Cc3sc4c5ccccc5ccc4[n+]3CC)n(CC)c1=O)N2CC [Compound 252],> 20 µg/mL,,> 200,0.1 µg/mL,,,
CCn1c(=Cc2sc3cc(Cl)c(Cl)cc3[n+]2CC)sc(=CC=C2Sc3ccc4ccccc4c3N2C)c1=O [Compound 383],20 µg/mL,,200,0.1 µg/mL,,,
CCN1C(=CC=c2sc(=Cc3sc4c5ccccc5ccc4[n+]3CC)n(CC)c2=O)C(C)(C)c2cc(Cl)ccc21 [Compound 220],5 µg/mL,0.04 µg/mL,125,,,,
CCN1C(=CC=c2sc(=Cc3sc4c5ccccc5ccc4[n+]3CC)n(CC)c2=O)C=Cc2cc(C)ccc21 [Compound 254],,,100,0.1 µg/mL,,10 µg/mL,
CCn1c(=Cc2sc3cc(C)ccc3[n+]2CC)sc(=CC=C2N(C)c3ccccc3C2(C)C)c1=O [Compound 207],1.5 µg/mL,0.01 µg/mL,150,,,,
CCOc1cc2c(cc1C)sc(C=c1sc(=CC=C3N(C)c4ccccc4C3(C)C)c(=O)n1CC)[n+]2CC [Compound 209],1 µg/mL,0.01 µg/mL,100,,,,
CCN1C=C(C)C=CC1=CC=c1sc(=Cc2sc3cc(C)c(C)cc3[n+]2CC)n(CC)c1=O [Compound 397],20 µg/mL,0.05 µg/mL,400,,,,
CCN1CCSC1=CC=c1sc(=Cc2oc3ccc4ccccc4c3[n+]2CC)n(CC)c1=O [Compound 143],5 µg/mL,0.05 µg/mL,100,,,,
CCN1CCSC1=CC=c1sc(=Cc2sc3cccc(OC)c3[n+]2CC)n(CC)c1=O [Compound 154],5 µg/mL,0.04 µg/mL,125,,,,
CCCCC[n+]1c(C=c2sc(=CC=C3SC=C(C)N3CC)c(=O)n2CC)sc2cc(OC)c(OC)cc21 [Compound 399],,,100,0.1 µg/mL,,10 µg/mL,
CCN1C(=CC=c2sc(=Cc3oc4ccc5ccccc5c4[n+]3CC)n(CC)c2=O)Sc2ccc3ccccc3c21 [Compound 70],,0.04 µg/mL,250,,,10 µg/mL,
CCN1C(C)=CSC1=CC=c1sc(=Cc2oc3cc(C)c(C)cc3[n+]2CC)n(CC)c1=O [Compound 388],,,261,0.03 µg/mL,,8 µg/mL,
CCn1c(=Cc2cccc[n+]2CC)sc(=CC=C2Sc3ccc4ccccc4c3N2C)c1=O [Compound 385],20 µg/mL,,100,0.2 µg/mL,,,
CCN1C(C)=CSC1=CC=c1sc(=Cc2sc3ccccc3[n+]2CC)n(CC)c1=O [Compound 92],,0.05 µg/mL,180,,,,9 µg/mL
CCN1CCSC1=CC=c1sc(=CC2=[N+](CC)CCS2)n(CC)c1=O [Compound 142],20 µg/mL,,200,0.1 µg/mL,,,
CCN1CCSC1=CC=c1sc(=Cc2sc3c4ccccc4ccc3[n+]2CC)n(CC)c1=O [Compound 138],,0.005 µg/mL,160,,,,0.8 µg/mL
CCN1C=CC(=CC=c2sc(=Cc3sc4ccc5ccccc5c4[n+]3CC)n(CC)c2=O)c2ccccc21 [Compound 307],3 µg/mL,0.02 µg/mL,150,,,,
CCN1C(=CC=c2sc(=Cc3[se]c4ccccc4[n+]3CC)n(CC)c2=O)Sc2ccc3ccccc3c21 [Compound 74],,,100,0.1 µg/mL,,10 µg/mL,
CCN1C(C)=CSC1=CC=c1sc(=C2CCC[n+]3c2sc2ccccc23)n(CC)c1=O [Compound 389],15 µg/mL,,188,,0.08 µg/mL,,
